Results from patent publication US20240300902A1, “NOVEL TRANSGLUTAMINASE 2 INHIBITOR AND USE THEREOF” (MD BIOLAB CO., LTD., priority 2021, published 2024).
Read-outs that look alike come from different tables or passages of the source.

Experiments:
[1] = tested on: ACHN cancer cell population; experiment: Sulforhodamine B (SRB) assay; format: cell-based, Human; conditions: for GI50 / SRB measurement (percentage decrease in the control value of SRB): 48 hours; for GI50: read-out: GI50 (50% growth inhibition); for SRB measurement (percentage decrease in the control value of SRB): concentration of 10^−5 M; for decrease in cell counts: concentrations 10^−6 M or lower
Protocol: Cells (10,000 cells/well, 100 μL) were incubated in a 96-well microtiter plate. After 24 hours of the incubation, drug (100 μL) was added to each of the wells, and the culture was further incubated at 37° C. for 48 hours. The cells were then fixed in TCA (50 μL per well). The plates were incubated at 4° C. for a minimum of 1 hour or a maximum of 3 hours. The liquid was removed from the plates, and then the plate was washed five times with water and then dried at room temperature (RT) for about 12-24 hours. The fixed cells were stained with 100 μL SRB for 5 minutes at room temperature. After the staining, the plate was washed three times with 1% (w/v) glacial acetic acid and dried at room temperature for about 12-24 hours. Next, the SRB was then dissolved in 10 mM Trizma base, and the absorbance was measured at 515 nm. The effect of the drug was expressed as GI50 (50% growth inhibition).
Specifically, each of the LDD3732, LDD3922, and LDD3959 in concentrations of 10^−9, 10^−8, 10^−7, 10^−6, and 10^−5 M were tested, and the percentage decrease in the control value of SRB was measured using an ACHN cancer cell population.

p53 = experiment: P53 rescue test using western blotting; format: cell-based; conditions: low to high concentration, cancer cell lines
Protocol: Whole cell lysates were prepared using a radioimmunoprecipitation assay (RIPA) buffer (150 mM sodium chloride, 1.0% (w/v) IGEPAL® CA-630 (NP-40), 0.5% (w/v) sodium deoxycholate, 0.1% (w/v) sodium dodecyl sulfate (SDS), a protease inhibitor cocktail, and 50 mM Tris-HCl (pH 8.0) containing a phosphatase inhibitor cocktail. Protein assays were performed through Bradford protein assay (Thermo Scientific, Waltham, MA, USA) to normalize protein expression. The proteins were resolved by SDS-PAGE and transferred to polyvinylidene difluoride (PVDF) membranes (Merck Millipore, Burlington, MA, USA). The membranes were blocked with 5% (w/v) BSA for 1 hour at room temperature and incubated overnight at 4° C. with labeled antibodies. Membranes were washed in TBS-T for 1 hour at room temperature and incubated together with a horseradish peroxidase (HRP)-bound secondary antibody for 1 hour at room temperature. Finally, the membranes were washed in TBS-T for 1 hour at room temperature and developed with enhanced chemiluminescence.

[2] = molecular target: T1, guinea pig liver-originated transglutaminase 2 (Cavia cutleri, UniProt P08587); experiment: In vitro transglutaminase 2 assay (1), [1,4-14C] putrescine incorporation into succinylated casein; format: biochemical; conditions: for mean value (scintillation counts) / fold values relative to the mean value of the control: 2 μM; for mean value (scintillation counts): negative control 129.0, control 4147.5, FIG. 1; for fold values relative to the mean value of the control: standard deviations 0.02 and 0.01; for TGase2 enzyme activity inhibitory effect compared with streptonigrin (KN383, positive control): same dose (2 μM)
T1 construct: 1 mU of guinea pig liver-originated transglutaminase 2 (Sigma, St. Louis, MO, USA); purchased Sigma; host or cells: guinea pig liver
T1 sequence (P08587 1-690): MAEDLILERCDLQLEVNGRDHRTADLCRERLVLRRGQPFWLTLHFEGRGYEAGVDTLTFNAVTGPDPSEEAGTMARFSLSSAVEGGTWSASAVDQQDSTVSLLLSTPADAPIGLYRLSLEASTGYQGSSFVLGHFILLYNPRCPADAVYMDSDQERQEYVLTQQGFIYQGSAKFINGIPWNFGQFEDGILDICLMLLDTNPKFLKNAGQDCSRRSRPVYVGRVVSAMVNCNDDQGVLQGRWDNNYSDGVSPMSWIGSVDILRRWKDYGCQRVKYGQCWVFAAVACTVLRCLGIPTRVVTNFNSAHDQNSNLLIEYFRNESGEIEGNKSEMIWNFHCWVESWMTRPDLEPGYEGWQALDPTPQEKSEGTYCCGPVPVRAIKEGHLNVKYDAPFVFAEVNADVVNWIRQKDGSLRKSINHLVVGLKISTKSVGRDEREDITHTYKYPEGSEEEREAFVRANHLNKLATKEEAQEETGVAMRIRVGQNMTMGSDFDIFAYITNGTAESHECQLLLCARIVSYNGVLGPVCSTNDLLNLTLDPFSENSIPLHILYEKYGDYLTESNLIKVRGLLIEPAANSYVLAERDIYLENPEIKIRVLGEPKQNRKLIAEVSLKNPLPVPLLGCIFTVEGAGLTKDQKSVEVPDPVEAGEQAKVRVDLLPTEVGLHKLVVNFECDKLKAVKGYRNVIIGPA
Protocol: Incorporation of [1,4-14C] putrescine into succinylated casein was measured to determine the inhibitory effect of each compound on the activity of transglutaminase 2 (TGase 2). 1 mU of guinea pig liver-originated transglutaminase 2 (Sigma, St. Louis, MO, USA) was preincubated with various concentrations of GK13 or GK921 in a 0.1 mL reaction buffer with or without 10 mM CaCl2 for 10 minutes, and 0.4 mL of a substrate solution containing 2% (w/v) succinylated casein and 100 nCi of [1,4-14C] putrescine. After incubation at 37° C. for 1 hour, 4 mL of cold (4° C.) 7.5% (w/v) trichloroacetic acid (TCA) was added to terminate the reaction. The TCA-insoluble precipitate was recovered with a GF/A-grade glass filter (Millipore, Billerica, MA, USA), washed with cold 5% (w/v) TCA, dried, and assessed with a scintillation counter (Beckman Coulter, Brea, CA, USA) to evaluate radiolabel binding. Transglutaminase 2 which was pre-incubated only with a buffer was used as a positive control. The scintillation counts were compared between the example and the positive control, and IC50 values were determined through the logistic linear regression method. The presented data were the mean values of three independent experiments. In this experimental example and the following experimental example, Streptonigrin (described as KN383 in each figure of the drawing), which is an existing transglutaminase 2 inhibitor, was used as a positive control.

MCF7 cells = experiment: Cell viability in breast cancer cell lines according to concentration; format: cell-based; conditions: MCF7, no expression of transglutaminase 2, 72 hours
Protocol: First breast cancer cells (MDA-MB-453, HCC-1806, HCC-1937: 10,000 cells/well, 100 μl) and second breast cancer cells (MDA-MB-231, MCF-7: 10,000 cells/well, 100 μl) were cultured in 96-well microplates.
After 24 hours, LDD3959 […] of various concentrations were added to each well, using a serum-free cell culture medium, and a reaction was allowed to proceed for 2 hours at 37° C. in the presence of 5% CO2. The culture medium was replaced with a culture medium containing 10% FSB, and a reaction was performed for 72 hours.
The existing culture medium was removed, and a new culture medium containing a water soluble tetrazolium salt was added. After that, the plate underwent a reaction at 37° C. in the presence of 5% CO2 for a duration in the range of 1 hour to 3 hours, and then absorbance was measured at 450 nm.

Row | Compound | GI50 ([1]; Homo sapiens) [µM] | SRB measurement (percentage decrease in the control value of SRB) [1] | decrease in cell counts [1] | p53 rescue effect (Western blot band of p53) (p53) | mean value (scintillation counts) [2] | fold values relative to the mean value of the control [2] | TGase2 enzyme activity inhibitory effect compared with streptonigrin (KN383, positive control) [2] | GI50 [1] [µM] | effective concentration for apoptosis (MCF7 cells)
1 | O=C1C(Cl)=C(Cl)C(=O)c2[nH]c(-c3ccc(Br)cc3)nc21 [LDD3922, 2-(4-bromophenyl)-5,6-dichloro-1H-benzo[d]imidazole-4,7-dione] | 5 | 52.25 | no significant decrease in cell counts | dose-dependent p53 rescue effects | 352.5 | 0.08 | two-fold or greater stronger TGase2 enzyme activity inhibitory effects than the control | – | –
2 | O=C1C(Cl)=C(Cl)C(=O)c2[nH]c(-c3ccccc3)nc21 [LDD3732, 5,6-dichloro-2-phenyl-1H-benzo[d]imidazole-4.7-dione] | – | −41.43 | no significant decrease in cell counts | dose-dependent p53 rescue effects | 477.5 | 0.12 | two-fold or greater stronger TGase2 enzyme activity inhibitory effects than the control | 2.2 | –
3 | COC1=C(N)C(=O)c2nc(-c3nc(C(=O)O)c(C)c(-c4ccc(OC)c(OC)c4O)c3N)ccc2C1=O [streptonigrin, Streptonigrin, reference compound] | – | – | – | – | 1275.5 | – | – | – | low
